Each compound was assayed against T1, Avian myoblastosis virus polyprotein II (Avian myeloblastosis virus) (UniProt Q86831) (assay: Inhibition of Avian myeloblastosis virus reverse transcriptase). Conditions: concentration not given here.
T1 sequence (whole entry): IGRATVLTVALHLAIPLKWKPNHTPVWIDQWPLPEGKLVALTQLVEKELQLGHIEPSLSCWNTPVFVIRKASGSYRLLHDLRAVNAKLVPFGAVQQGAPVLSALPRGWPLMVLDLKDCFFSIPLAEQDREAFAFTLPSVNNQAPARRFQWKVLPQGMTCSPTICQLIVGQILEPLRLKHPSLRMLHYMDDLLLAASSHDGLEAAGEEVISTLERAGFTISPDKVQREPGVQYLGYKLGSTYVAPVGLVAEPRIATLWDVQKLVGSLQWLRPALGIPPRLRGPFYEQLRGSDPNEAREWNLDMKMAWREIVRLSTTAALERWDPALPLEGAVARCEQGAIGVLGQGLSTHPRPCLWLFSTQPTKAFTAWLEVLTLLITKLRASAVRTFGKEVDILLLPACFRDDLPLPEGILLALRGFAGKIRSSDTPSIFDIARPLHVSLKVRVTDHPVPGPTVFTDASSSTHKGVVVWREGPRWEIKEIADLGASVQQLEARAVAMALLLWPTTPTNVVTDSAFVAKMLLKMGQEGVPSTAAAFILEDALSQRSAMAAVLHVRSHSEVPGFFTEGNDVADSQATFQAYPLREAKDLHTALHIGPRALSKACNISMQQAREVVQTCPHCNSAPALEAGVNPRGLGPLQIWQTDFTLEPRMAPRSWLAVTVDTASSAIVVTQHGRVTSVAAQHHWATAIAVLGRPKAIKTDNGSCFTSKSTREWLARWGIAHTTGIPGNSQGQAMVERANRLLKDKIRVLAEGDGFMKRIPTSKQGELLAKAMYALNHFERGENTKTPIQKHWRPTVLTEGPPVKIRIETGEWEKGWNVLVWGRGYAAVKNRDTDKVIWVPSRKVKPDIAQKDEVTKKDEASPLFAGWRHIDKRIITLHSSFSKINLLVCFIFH
Parameters: concentration or dose not given beside the values

Row | Structure (SMILES) | inhibition
1 | CC(C)Oc1ccc(-c2cc(=O)c3c(O)cc(OC(C)C)cc3o2)cc1 | 23.6%
2 | COc1ccc(-c2cc(=O)c3ccc(O)cc3o2)cc1 | 13.6%
3 | COc1ccc(-c2cc(=O)c3c(OC)cc(OC)cc3o2)cc1 | 45.6%
4 | O=c1cc(-c2ccccc2O)oc2c(O)c(O)cc(O)c12 | 67.7%
5 | O=c1c(O)c(-c2cc(O)c(O)c(O)c2)oc2cc(O)cc(O)c12 | 82.5%
6 | O=c1cc(-c2ccccc2)oc2cc(OCc3ccccc3)cc(O)c12 | 34.9%
7 | CC(C)Oc1ccc(-c2cc(=O)c3c(O)c(O)c(OC(C)C)c(O)c3o2)cc1 | 46.2%
8 | COc1c(OC(C)=O)cc2oc(-c3ccccc3)cc(=O)c2c1O | 18.3%
9 | CC(=O)Oc1cc2oc(-c3ccccc3)cc(=O)c2c(OC(C)=O)c1OC(C)=O | 71.4%
10 | COc1cc2oc(-c3ccc(O)c(O)c3)cc(=O)c2c(O)c1O | 91.4%
11 | O=c1cc(-c2ccccc2)oc2c(O)c(OCc3ccccc3)cc(O)c12 | 19%
12 | COc1cc(O)c2c(=O)c(O)c(-c3ccc(OC)c(O)c3)oc2c1 | 68.1%
13 | O=c1c(O)c(-c2ccc(O)c(O)c2)oc2cc(O)c(O)c(O)c12 | 98.4%
14 | COc1c(O)cc(O)c2c(=O)cc(-c3ccccc3O)oc12 | 8.5%
15 | O=c1c(O)c(-c2ccc(O)cc2)oc2cc(O)c(O)c(O)c12 | 97.2%
16 | O=c1c(O)c(-c2ccc(O)c(O)c2)oc2cc(O)cc(O)c12 | 41.4%
17 | COc1ccc(-c2oc3cc(O)cc(O)c3c(=O)c2O)cc1O | 59.7%
18 | O=c1cc(-c2ccc(O)cc2)oc2cc(O)c(O)c(O)c12 | 99.4%
19 | COc1cccc(OC)c1-c1cc(=O)c2c(O)c(OC)c(OC)c(OC)c2o1 | 5.4%
20 | COc1cc(O)c2c(=O)c(O)c(-c3ccc(O)c(O)c3)oc2c1 | 50.8%
21 | CC(C)Oc1cc(OC(C)C)c2c(=O)cc(-c3ccccc3)oc2c1 | 24.2%
22 | COc1cc(O)c2c(=O)cc(-c3ccccc3)oc2c1OC | 9.8%
23 | O=c1c(O)c(-c2ccc(O)cc2O)oc2cc(O)cc(O)c12 | 40.5%
24 | O=c1c(O)c(-c2ccccc2O)oc2cc(O)cc(O)c12 | 28%
25 | O=c1cc(-c2ccccc2)oc2cc(O)c(O)c(O)c12 | 95%
26 | O=c1c(O)c(-c2ccc(O)c(O)c2)oc2c(O)c(O)cc(O)c12 | 85.1%
27 | COc1c(O)cc2oc(-c3ccc(O)cc3)cc(=O)c2c1O | 23.3%
28 | COc1c(O)cc(O)c2c(=O)cc(-c3ccccc3)oc12 | 36.8%

Row | Structure (SMILES) | inhibition
29 | O=c1c(O)c(-c2cc(O)c(O)c(O)c2)oc2cc(O)ccc12 | 87.5%
30 | COc1cc2oc(-c3ccccc3)cc(=O)c2c(OC)c1OC | 29.8%
31 | COc1cc2oc(-c3ccccc3)cc(=O)c2c(O)c1OC | 45.9%
32 | COc1ccc(-c2oc3cc(O)cc(O)c3c(=O)c2O)cc1 | 64.6%
33 | COc1cc(O)c2c(=O)cc(-c3ccccc3OC(C)=O)oc2c1OC | 17%
34 | COc1cccc(O)c1-c1cc(=O)c2c(O)c(OC)c(OC)c(OC)c2o1 | 18%
35 | COc1cc2oc(-c3ccc(O)cc3)cc(=O)c2c(O)c1OC | 50.9%
36 | COc1c(O)cc2oc(-c3ccccc3)cc(=O)c2c1OC | 32.7%
37 | COc1ccc(-c2cc(=O)c3c(O)cc(OC(C)C)c(OC)c3o2)cc1 | 12%
38 | COc1c(OC(C)C)cc(O)c2c(=O)cc(-c3ccc(O)cc3)oc12 | 15.4%
39 | O=c1cc(-c2ccc(O)cc2)oc2c(O)c(O)cc(O)c12 | 22%
40 | O=c1c(O)c(-c2ccccc2)oc2cc(O)cc(O)c12 | 42.1%
41 | COc1ccc(-c2cc(=O)c3c(O)c(O)c(OC)c(O)c3o2)cc1 | 39.1%
42 | O=c1c(O)c(-c2ccc(O)cc2)oc2cc(O)cc(O)c12 | 72.6%
43 | CC(=O)Oc1ccc(-c2cc(=O)c3c(OC(C)=O)cc(OC(C)=O)cc3o2)cc1 | 24.7%
44 | O=c1cc(-c2ccccc2)oc2c(O)c(O)cc(O)c12 | 36.9%
45 | COc1ccc(-c2cc(=O)c3c(O)cc(O)cc3o2)cc1 | 48%
46 | CC(C)Oc1ccc(-c2cc(=O)c3c(O)c(O)c(OC(C)C)cc3o2)cc1 | 18%
47 | COc1ccc(-c2cc(=O)c3c(O)cc(OC)cc3o2)cc1 | 54.8%
48 | COc1cc(-c2oc3cc(O)ccc3c(=O)c2O)ccc1O | 52.7%
49 | CC(C)Oc1ccc(-c2cc(=O)c3c(O)cc(O)c(O)c3o2)cc1OC(C)C | 17.6%
50 | CC(C)Oc1ccc(-c2cc(=O)c3c(O)cc(O)cc3o2)cc1 | 55.4%
51 | COc1cc(O)c2c(=O)c(OC)c(-c3ccc(OC)c(OC)c3)oc2c1 | 9.2%
52 | CC(C)Oc1ccc(-c2cc(=O)c3c(O)cc(O)cc3o2)cc1OC(C)C | 12.2%
53 | O=c1cc(-c2ccc(O)c(O)c2)oc2cc(O)c(O)c(O)c12 | 91.7%
54 | O=c1cc(-c2ccc(O)c(O)c2)oc2c(O)c(O)cc(O)c12 | 31.3%
55 | O=c1c(O)c(-c2c(O)cccc2O)oc2cc(O)cc(O)c12 | 21.3%
